In a melting point compilation (Tetko et al.; mined from patent text by program, amines drawn as free bases though some values may be those of a salt):
Non-standard residues stand in square brackets, D forms with d. Residues, ends and D or L forms follow the SMILES beside them. *: point of attachment. Tic = O=C(O)[C@@H]1Cc2ccccc2CN1; Abu = CC[C@H](N)C(=O)O; NHBu = CCCCN*

For `Nc1nccc(-c2c(-c3ccccc3)nn3ccccc23)n1`, which melting point is on record?
Its melting point is 222 to 223 °C.

With `Nc1ccc(Cc2ccc(CS(=O)(=O)NCc3ccccc3)cc2)cc1` as the molecule, how does the melting point read?
Its melting point is 115 to 118 °C.

With `CCOC(=O)C1=C(C)Nc2nc(N3CCOCC3)nc(N3CCOCC3)c2C1c1ccncc1` (centres undefined) as the molecule, how does the melting point read?
Its melting point is 209 °C.

With `Nc1ccc(S(=O)(=O)c2cc(-c3cc(C(F)(F)F)cc(C(F)(F)F)c3)nc(N3CCCC3)c2)cc1` as the molecule, how does the melting point read?
The melting point was 184 to 186 °C.

For `CCCn1c(COCC)nc2c(N)nc3ccc(OCCN)cc3c21`, which melting point is on record?
Its melting point is 157 to 159 °C.

With `Clc1cccc(OCCBr)c1Cl` as the molecule, how does the melting point read?
The melting point was 51 to 56 °C.

For `Nc1ccc(Oc2ncc(Cl)cn2)cc1`, which melting point is on record?
The melting point was 125 °C.

Which melting point does the source give for `CCNC(=O)N1CCN(c2ccc(NC(=O)c3cc(=O)c4cc(F)cc(N5CCN(C)CC5)c4o3)cc2)CC1` here?
The melting point was 236 to 238 °C.

For `CCOc1ccc2c(=S)cc[nH]c2c1`, which melting point is on record?
Its melting point is 171 to 174 °C.

Which melting point does the source give for `O=C(c1ccc(F)cc1)C1CCN(CC(O)c2cc(Br)no2)CC1` (centres undefined) here?
The melting point was 132 to 135 °C.

For `CC1(C)OCc2cc(Cl)cc(C(C)(O)c3cn(C(c4ccccc4)(c4ccccc4)c4ccccc4)cn3)c2O1` (centres undefined), which melting point is on record?
Its melting point is 182 to 184 °C.

Which melting point does the source give for `O=[N+]([O-])c1ccnc(N2CCNCC2)c1` here?
The melting point was 92 to 93 °C.

With `Cc1cncn1-c1cc(NC(=O)OC(C)(C)C)cc(C(F)(F)F)c1` as the molecule, how does the melting point read?
Its melting point is 169 to 171 °C.

Which melting point does the source give for `Cc1c(S(=O)(=O)C(F)(F)F)cc(-c2ccc(S(C)(=O)=O)cc2)n1-c1ccc(F)cc1` here?
The melting point was 162 to 164 °C.

With `COc1ccc2c(c1)C(c1ccncc1)=Nc1cc(Cl)ccc1O2` as the molecule, how does the melting point read?
The melting point was 158 to 160 °C.

With `Cn1cnnc1C(O)(c1ccc(Cl)cc1)c1ccc2c(c1)c(-c1cccc(Cl)c1)cc(=O)n2C` (centres undefined) as the molecule, how does the melting point read?
Its melting point is 182 °C.

With `Fc1cc(F)c(-c2cncn2-c2ccc(Cl)cc2)c(F)c1` as the molecule, how does the melting point read?
The melting point was 170 to 172 °C.

With `N#Cc1c(N2CCCCC2)cc(-c2cccs2)c2c1-c1ccccc1C2=O` as the molecule, how does the melting point read?
Its melting point is 172 to 174 °C.

With `CC1CCC(=NNc2ccccc2)c2ncc(C(=O)O)c(=O)n21` (single isomer, unassigned; (-)) as the molecule, how does the melting point read?
Its melting point is 255 to 256 °C.

For `COc1cc(N(C)C)ccc1C=Nc1cc(Cl)c(N=CN(C)C)c(Cl)c1`, which melting point is on record?
Its melting point is 137 to 139 °C.

For `Cc1ccc(O)c(F)n1`, which melting point is on record?
Its melting point is 133 to 135 °C.

For `N=C(N)c1c[nH]c2ccc(CCNC(=O)c3ccc(-c4ccnc(N5CCCC5C(N)=O)n4)cc3)cc12` (centres undefined), which melting point is on record?
Its melting point is 139 to 141 °C.

For `CS(=O)(=O)c1ccc(C(CC2CCCC2)C(=O)Nc2nccs2)cc1C#N` (centres undefined), which melting point is on record?
Its melting point is 145 to 148 °C.

For `Cc1ccc(-c2nc3ccc(C(C)(C)CN)cc3[nH]2)cc1`, which melting point is on record?
Its melting point is 45 to 48 °C.

With `COc1ccc([C@@H]2Cc3c(cccc3C(F)(F)F)N(CC3=NCCN3C(=O)OC(C)(C)C)C(=O)[C@@H]2O)cc1` as the molecule, how does the melting point read?
The melting point was 116 °C.

For `CCc1cccc(C)c1CNc1cc(C(=O)N(C)C)cc2c1nc(CO)n2C`, which melting point is on record?
Its melting point is 138 to 141 °C.

With `Cc1ccc(S(=O)(=O)c2ccc3c(c2)C(O)C(Br)C(C)(C)O3)cc1` (centres undefined) as the molecule, how does the melting point read?
The melting point was 141 to 142 °C.

For `CN(C)C(=O)Nc1ccc(CN2OCC(C)(C)C2=O)c(Cl)c1`, which melting point is on record?
The melting point was 145 to 147 °C.

Which melting point does the source give for `CS(=O)c1c(C#N)nn(-c2c(Cl)cc(C(F)(F)F)cc2Cl)c1NCC(N)=O` (centres undefined) here?
The melting point was 155 to 157 °C.

For `CCOc1nc2cc(N)ccc2c(=O)o1`, which melting point is on record?
The melting point was 185 to 187 °C.

Which melting point does the source give for `CNc1nc(-c2cccc(-c3cccc(-c4ccccc4)c3)c2)c2cc(OC)c(OC)cc2n1` here?
Its melting point is 193 to 195 °C.

Which melting point does the source give for `CC(N)Cn1ncc2ccc3c(c21)C(N)C(O)CO3` (centres undefined) here?
Its melting point is 84 to 88 °C.

Which melting point does the source give for `CNC(=O)C1CN(C(=O)/C=C/C2=C(C)CCCC2(C)C)CCN1C(N)=O` (centres undefined) here?
Its melting point is 100 to 112 °C.

With `Cc1ccc2[nH]c(C(=O)O)cc2c1O` as the molecule, how does the melting point read?
The melting point was 262 °C.

For `COc1ccc(C2CC3(C)C(=O)CCC3C3CCC4=CC(=O)CCC4C23)cc1` (centres undefined), which melting point is on record?
Its melting point is 155 to 156 °C.

With `CCOC(=O)N1CCN(C(=O)c2sc(NC(C)=O)nc2CCc2ccc(NC(=N)N)cc2)CC1` as the molecule, how does the melting point read?
The melting point was 180 to 182 °C.

Which melting point does the source give for `COc1cc2nc(CN(C)C)[nH]c(=O)c2cc1OC` here?
The melting point was 210 to 212 °C.

Which melting point does the source give for `NS(=O)(=O)c1ccc(-c2[nH]c3ccc(Br)cc3c2-c2ccccc2)cc1` here?
Its melting point is 310 to 312 °C.

For `COc1ccc(C(=O)Nc2cc([N+](=O)[O-])ccc2C)cc1OC`, which melting point is on record?
The melting point was > 300 °C.

For `Cn1c2ccccc2c2ccc3ccccc3c21`, which melting point is on record?
Its melting point is 167 to 169 °C.

With `COC(=O)CCc1ccc(C#CC2(O)CN3CCC2CC3)c(CO)c1` (centres undefined) as the molecule, how does the melting point read?
Its melting point is 35.8 °C.

For `CCCNC(=S)n1nc(Oc2ncc(C(F)(F)F)cc2Cl)cc1C`, which melting point is on record?
Its melting point is 51 to 53 °C.

For `Cc1cc(Cl)cc2c(-c3ccccc3)onc12`, which melting point is on record?
Its melting point is 108 to 109 °C.

With `CN(C)Cc1nc(C(=O)O)nn1-c1ccc(Cl)cc1C(=O)c1ccccc1` as the molecule, how does the melting point read?
The melting point was 160 to 165 °C.

For `CC(C)C[C@H](NC(=O)c1ccc(Cl)cc1)C(=O)N[C@@H](C(C)C)[C@@H](O)c1c(-c2ccccc2)c1=O`, which melting point is on record?
The melting point was 116 to 120 °C.

With `CCCn1c(=O)c2c(nc(/C=C/c3ccc(OC)c4ccccc34)n2C)n(CCC)c1=O` as the molecule, how does the melting point read?
Its melting point is 213 to 214 °C.

Which melting point does the source give for `Nc1ccccc1C(=O)NCCCCN1CCC(OC(c2ccccc2)c2ccccc2)CC1` here?
The melting point was 74 to 75 °C.

With `CC1(C)C2CC[C@@]1(C)C(=O)C(C(=O)Nc1ccc(Cl)cc1)C2=O` (some centres undefined) as the molecule, how does the melting point read?
Its melting point is 88 to 90 °C.

With `c1ccc2c(c1)OCCc1c-2n(CCCN2CCCCC2)c2ccccc12` as the molecule, how does the melting point read?
The melting point was 65 to 66 °C.

Which melting point does the source give for `CCCCNC(=O)[C@@H]1Cc2ccccc2CN1C(=O)[C@@H](N)CC` (H-[Abu]-[Tic]-NHBu) here?
The melting point was 105 to 110 °C.

Which melting point does the source give for `CCCOc1cc2c(=O)cc(C(=O)O)[nH]c2ccc1=O` here?
The melting point was > 250 °C.

Which melting point does the source give for `O=C(CC1COCCO1)NC1CCC(CCN2CCN(c3nccc4c3OCC4)CC2)CC1` (centres undefined) here?
The melting point was 181 °C.

With `COc1cc(C(=O)Oc2cc(Cl)c(Cl)cc2Cl)ccc1Cc1cn(C)c2ccc([N+](=O)[O-])cc12` as the molecule, how does the melting point read?
The melting point was 134 to 136 °C.

For `COC(=O)c1cc(C(C)(C)C)c(O[Si](C)(C)Oc2c(C(C)(C)C)cc(C(=O)OC)cc2C(C)(C)C)c(C(C)(C)C)c1`, which melting point is on record?
The melting point was 197 to 198 °C.

With `O=C(O)C(O)Cc1ccc(OCCN2CCSc3ccccc32)cc1` (centres undefined) as the molecule, how does the melting point read?
The melting point was 74 to 76 °C.

Which melting point does the source give for `O=C(NCCN1CCCCC1)c1nc(NCC(c2ccccc2)c2ccccc2)c2nc[nH]c2n1` here?
Its melting point is 222 °C.

For `Cc1ccc(S(=O)(=O)N[C@@H](C)C(=O)Oc2csc(-c3ccccc3)c2)cc1`, which melting point is on record?
The melting point was 85 to 87 °C.

With `CN(C)C=CC(=O)c1ccc2ccccc2c1` as the molecule, how does the melting point read?
The melting point was 100 to 101 °C.

For `OCc1cccc(/C=C/c2ccc3ccc(Cl)cc3n2)c1`, which melting point is on record?
The melting point was 141 °C.

Which melting point does the source give for `O=C(O)CCCCCCCCCCCNC(=O)CCCCCCCCCCI` here?
Its melting point is 107 to 110 °C.

For `CCCN1N=C2C(=Cc3ccccc3C)CSCC2C1c1ccccc1C` (centres undefined), which melting point is on record?
Its melting point is 110 to 112 °C.

For `CN=C(SC)N(C)Cc1cccnc1Cl`, which melting point is on record?
Its melting point is 106 to 113 °C.

With `CC(C)(C)OC(=O)N1CCCN(c2ccnc3sc(C(N)=O)c(N)c23)CC1` as the molecule, how does the melting point read?
The melting point was 177 to 178 °C.

For `Cc1cccc(C)c1N(CCCC(=O)O)C(=O)CN(C(=O)c1ccc(Cl)cc1)c1c(C)cccc1C`, which melting point is on record?
Its melting point is 214 to 216 °C.

For `COc1cc(OC)nc(Cc2ccccc2NS(=O)(=O)C(F)(F)F)n1`, which melting point is on record?
Its melting point is 99 to 100 °C.

With `Cc1sc(-c2ccccc2)nc1COc1ccc(COc2ccccc2CC(=O)O)cn1` as the molecule, how does the melting point read?
Its melting point is 173 to 174 °C.

Which melting point does the source give for `Cc1ccc(C(=O)C2=C(O)C(=O)N(c3ncc(S(C)(=O)=O)s3)C2c2ccc(C(C)C)cc2)cc1` (centres undefined) here?
Its melting point is 269 to 271 °C.

Which melting point does the source give for `CCC(CC)Oc1cc(C)nc(Nc2c(C)cc(C)cc2C)c1N` here?
Its melting point is 73 to 75 °C.

With `CCCCCCCCOc1cc(OC)ccc1O` as the molecule, how does the melting point read?
The melting point was 36 to 38 °C.
